The values that follow come from ChEMBL document CHEMBL1681657, “P3 optimization of functional potency, in vivo efficacy and oral bioavailability in 3-aminopyrazinone thrombin inhibitors bearing non-charged groups at the P1 position” (Bioorg Med Chem Lett, 2011).

In series [1] the target is Prothrombin (Homo sapiens, UniProt P00734). The experiment in a line: Inhibition of thrombin.
Series [2] can be described thus: Anticoagulant activity in human […] assessed as concentration required to double activated partial […] time. Type of series: functional.
Series [3] can be described thus: Fraction unbound in human plasma. It is filed as ADME, cell-free.
The nature of series [4]: Inhibition of trypsin.
A short description of series [5]: Cmax in dog at 1 mg/kg, po. Type of series: ADME, organism-based, Canis lupus familiaris. On the set-up: dose 1 mg/kg, route oral. Particulars: in vivo.
The nature of series [6]: Half life in dog at 1 mg/kg, po. It is filed as ADME, organism-based, Canis lupus familiaris. Set-up: dose 1 mg/kg, route oral. The settings on record: in vivo.
Series [7] is described as follows: Cmax in rat at 10 mg/kg, po. It is filed as ADME, organism-based. Set-up: dose 10 mg/kg, route oral. Particulars: in vivo.
Series [8] is described as follows: Half life in rat at 10 mg/kg, po. Type of series: ADME, organism-based. Set-up: dose 10 mg/kg, route oral. Particulars: in vivo.
The test system of series [9] is Rattus norvegicus. The experiment in a line: Anticoagulant activity in iv dosed ferric chloride-induced thrombosis rat model assessed as protection against thrombotic occlusion. It is filed as functional, organism-based.

Active and inactive are the calls of the source. The rule behind the calls is not given here. Bounds are passed on as bounds.

The Ki is the equilibrium dissociation constant of an inhibitor or competing ligand from its target. Low readings indicate tighter binding, high ones weaker binding. A word on the fraction unbound: it is free concentration divided by total concentration. A low value points to extensive binding. In general, Cmax refers to the peak of the concentration-time curve. For orientation: half-life means how long it takes for the measured level to halve. Lower therefore signals rapid decline. For the compound `Cc1cnc(NCCc2ccccn2)c(=O)n1CC(=O)NCc1cccc(Cl)c1`, the values for the Ki in [1] and in series [4] were 3 nM and 37 µM, respectively. Also, the Activity in series [2] stood at 1.01 µM. For the same compound, in [3], the fraction unbound was 0.06. In addition, the Cmax came to 2820 nM in series [5] and 2980 nM in [7]. In addition, the results for the half-life in series [6] and in [8] were 52 min and 60 min, respectively.
For `O=C(Cn1c(Cl)cnc(NCCc2cccc[n+]2[O-])c1=O)NCc1cc(Cl)ccc1OCC(F)(F)F`, the figures for the Ki in [1] and in series [4] were 0.31 nM and 17 µM, respectively. The Activity in series [2] stood at 0.6 µM.
Turning to `Cc1ccc(C#N)c(CNC(=O)Cn2c(C)cnc(NCCc3ccccn3)c2=O)c1`, the Ki in series [1] turned out to be 1.3 nM; in [4] it was 102 µM. Also, the Activity in series [2] was 0.56 µM. For the same compound, the Cmax in series [5] amounted to 2300 nM. In series [6], this compound returned a half-life of 51 min.
On to `COc1ccc(Cl)cc1CNC(=O)Cn1c(C)cnc(NCCc2ccccn2)c1=O`, for which the Ki in series [1] worked out at 2 nM; in series [4], 161 µM. Further, the Activity in series [2] is 1.05 µM. Further, the Cmax in [5] was 1480 nM; in series [7] it was 570 nM. In addition, the half-life worked out at 60 min in series [6] and 224 min in series [8].
For `COc1ccc(C)cc1CNC(=O)Cn1c(C)cnc(NCCc2ccccn2)c1=O`, the Ki in series [1] was found to be 8 nM; in [4] it was 902 µM. In series [2], the Activity stood at 2.9 µM.
For `Cc1cnc(NCCc2ccccn2)c(=O)n1CC(=O)NCc1cc(Cl)ccc1OCC(F)(F)F`, the values for the Ki in [1] and in series [4] were 0.5 nM and 32 µM, respectively. Besides, the Activity in series [2] amounted to 0.79 µM. The figures for the Cmax in [5] and in series [7] were 3240 nM and 1060 nM, respectively. Further, the half-life in [6] was 78 min; in [8], 117 min.
As to `Cc1ccc(OCC(F)(F)F)c(CNC(=O)Cn2c(C)cnc(NCCc3ccccn3)c2=O)c1`, the Ki in series [1] turned out to be 1.5 nM; in [4], 91 µM. The Activity in series [2] worked out at 0.89 µM.
Consider `Cc1ccc(Cl)cc1CNC(=O)Cn1c(Cl)cnc(NCCc2cccc[n+]2[O-])c1=O`, for which the results for the inhibitory constant (Ki) in series [1] and in series [4] were 1.1 nM and 94 µM, respectively. For the same compound, the Activity in series [2] is 0.69 µM.
As for `Cc1cnc(NCCc2ccccn2)c(=O)n1CC(=O)NCc1cc(Cl)ccc1OCC(=O)NC1CCCNC1` (centres undefined), the affinity in series [1] corresponds to a Ki of 0.125 nM. Further, in series [2], the Activity was 0.24 µM. Besides, the outcome in [9] was Active. The compound further had a fraction unbound in series [3] of 0.12.
`Cc1cnc(NCCc2ccccn2)c(=O)n1CC(=O)NCc1cc(Cl)ccc1OCC(=O)NC1CC1` had a Ki in [1] of 0.015 nM. For the same compound, the Activity in series [2] turned out to be 0.45 µM. For the same compound, the fraction unbound in [3] was determined as 0.01.
Regarding `COc1ccc(C#N)c(CNC(=O)Cn2c(Cl)cnc(NCCc3ccccn3)c2=O)c1`, the inhibition constant (Ki) was 1.5 nM in series [1] and more than 100 µM in [4]. For the same compound, the Activity in [2] was determined as 0.83 µM.
As to `COc1ccc(C#N)c(CNC(=O)Cn2c(C)cnc(NCCC3CCCCN3)c2=O)c1` (racemic), the Ki amounted to 1.8 nM in series [1] and 136 µM in [4]. For the same compound, the Activity in series [2] was determined as 0.27 µM. In addition, in series [9], the outcome was Active.
For the compound `COc1ccc(Cl)cc1CNC(=O)Cn1c(C)cnc(NCCC2CCCCN2)c1=O` (racemic), the figures for the Ki in [1] and in series [4] were 4.8 nM and 58.9 µM, respectively. Moreover, the Activity in [2] amounted to 0.65 µM. Besides, in series [9], the result was Active.
In the case of `COc1ccc(C#N)c(CNC(=O)Cn2c(Cl)cnc(NCCc3cccc[n+]3[O-])c2=O)c1`, the values for the inhibition constant (Ki) in series [1] and in series [4] were 1.1 nM and 278 µM, respectively. In addition, the Activity in series [2] was 0.41 µM.
Consider `Cc1ccc(Cl)cc1CNC(=O)Cn1c(C)cnc(NCCc2ccccn2)c1=O`, for which the Ki is 1.1 nM in series [1] and more than 50 µM in [4]. In addition, the Activity in series [2] stood at 0.87 µM. Besides, the results for the Cmax in [5] and in series [7] were 2520 nM and 1290 nM, respectively. In addition, the values for the half-life in series [6] and in [8] were 71 min and 220 min, respectively.
As for `COc1ccc(C#N)c(CNC(=O)Cn2c(C)cnc(NCCc3ccccn3)c2=O)c1`, the values for the Ki in [1] and in series [4] were 1.6 nM and more than 1000 µM, respectively. Further, in series [2], the Activity turned out to be 0.72 µM. Further, the results for the Cmax in series [5] and in series [7] were 2260 nM and 2280 nM, respectively. Also, the half-life in series [6] was 88 min; in [8], 125 min.
Consider `Cc1ccc(Cl)cc1CNC(=O)Cn1c(C)cnc(NCCC2CCCCN2)c1=O` (racemic), for which the Ki in series [1] amounted to 2.3 nM; in series [4], 38 µM. Moreover, the Activity in [2] stood at 0.44 µM. In addition, the result in [9] was Active.
On to `Cc1cnc(NCCc2ccccn2)c(=O)n1CC(=O)NCc1cc(Cl)ccc1Cl`, for which the figures for the Ki in [1] and in [4] were 0.75 nM and 52 µM, respectively. In addition, in series [2], the Activity amounted to 0.98 µM.
`O=C(Cn1c(Cl)cnc(NCCc2cccc[n+]2[O-])c1=O)NCc1cc(Cl)ccc1Cl`: the Ki in series [1] turned out to be 0.76 nM; in [4] it was 138 µM. In addition, the Activity in series [2] worked out at 0.65 µM.
Consider `NC(C(=O)N1CCC[C@H]1C(=O)NCc1cc(Cl)ccc1OCC(=O)NC1CC1)C1CCCCC1` (single isomer, unassigned), for which the Activity in [2] came out at 0.42 µM. The compound also displayed a fraction unbound in series [3] of 0.12.
Consider `COc1ccc(Cl)cc1CNC(=O)Cn1c(Cl)cnc(NCCc2cccc[n+]2[O-])c1=O`, for which the Ki was 1.8 nM in [1] and 64 µM in series [4]. In addition, the Activity in series [2] came out at 0.67 µM.
